Data on 16 compounds can be found in patent publication US12662489B2 (Sitryx Therapeutics Limited, priority 2023, dated 2026).

For orientation: IC50 means the concentration that inhibits the measured activity by half.

In assay [1] the target is T1, MTHFD1 recombinant human enzyme (Homo sapiens, UniProt P11586).
T1 sequence (P11586 2-291 limits assumed): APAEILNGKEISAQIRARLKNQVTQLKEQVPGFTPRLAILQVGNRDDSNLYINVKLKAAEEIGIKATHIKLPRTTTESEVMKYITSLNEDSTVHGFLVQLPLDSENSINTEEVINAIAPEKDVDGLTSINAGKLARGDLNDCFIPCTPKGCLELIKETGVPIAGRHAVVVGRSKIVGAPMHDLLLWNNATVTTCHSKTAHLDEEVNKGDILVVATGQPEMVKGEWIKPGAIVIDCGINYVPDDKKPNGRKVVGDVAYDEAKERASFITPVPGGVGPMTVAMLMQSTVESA
Briefly: MTHFD1 inhibition assay (NAD(P)H-Glo luminescence). The following applies: MTHFD1 IC50, recombinant human enzyme 200 nM, NADP, band.

Assay [2] concerns the target T2, MTHFD2 recombinant human enzyme (Homo sapiens, UniProt P13995).
T2 sequence (P13995 36-350): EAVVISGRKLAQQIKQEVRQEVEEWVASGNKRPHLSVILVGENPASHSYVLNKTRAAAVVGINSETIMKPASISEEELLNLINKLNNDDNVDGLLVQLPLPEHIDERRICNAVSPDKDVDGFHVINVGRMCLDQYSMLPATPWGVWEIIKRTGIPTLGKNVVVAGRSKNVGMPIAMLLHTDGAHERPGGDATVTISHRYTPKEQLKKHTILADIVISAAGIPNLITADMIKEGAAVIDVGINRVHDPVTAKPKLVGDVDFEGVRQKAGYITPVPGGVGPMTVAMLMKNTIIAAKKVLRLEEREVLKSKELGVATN
Briefly: MTHFD2 inhibition assay (NAD(P)H-Glo luminescence). Particulars: for MTHFD1/MTHFD2 IC50 ratio: selectivity of MTHFD2 inhibition over MTHFD1, band.

A value given as a limit tells only on which side of the number the result lay.

Turning to `COC[C@H]1CN(c2cc(Cl)c3c4c(c(=O)oc3c2C)CN(C(=O)c2cc(N(C)C)c(C(=O)NS(=O)(=O)N(C3CC3)C3CC3)cc2F)CC4)CCN1C` [Example 277, (R)-4-(10-chloro-8-(3-(methoxymethyl)-4-methylpiperazin-1-yl)-7-methyl-5-oxo-1,3,4,5-tetrahydro-2H-chromeno[3,4-c]pyridine-3-carbonyl)-N-(N,N-dicyclopropylsulfamoyl)-2-(dimethylamino)-5-fluorobenzamide], the 50% inhibitory concentration (IC50) in assay [1] lay in the range of 100 to 1000 nM. In addition, in assay [2], the concentration for half-maximal inhibition (IC50) lay within 10 to 100 nM and the “MTHFD1/MTHFD2 IC50 ratio” value is recorded as “H (>9.0 to 30)”.

In the case of `COC[C@H]1CN(c2cc(Cl)c3c4c(c(=O)oc3c2C)CN(C(=O)c2cc(N(C)C)c(C(=O)NS(=O)(=O)N3CC[C@H](OC)C3)cc2F)CC4)CCN1C` [Example 284, 4-(10-chloro-8-((R)-3-(methoxymethyl)-4-methylpiperazin-1-yl)-7-methyl-5-oxo-1,3,4,5-tetrahydro-2H-chromeno[3,4-c]pyridine-3-carbonyl)-2-(dimethylamino)-5-fluoro-N-(((S)-3-methoxypyrrolidin-1-yl)sulfonyl)benzamide], the IC50 in assay [1] was in the range of 100 to 1000 nM. Besides, in assay [2], the IC50 was 10 to 100 nM and the “MTHFD1/MTHFD2 IC50 ratio” value is given as “H (>9.0 to 30)”.

`COC[C@H]1CN(c2cc(C)c3c4c(c(=O)oc3c2C)CN(C(=O)c2ccc(C(=O)NS(=O)(=O)N3CCCC3)cc2Cl)CC4)CCN1C` [Example 184, (R)-3-chloro-4-(8-(3-(methoxymethyl)-4-methylpiperazin-1-yl)-7,10-dimethyl-5-oxo-1,3,4,5-tetrahydro-2H-chromeno[3,4-c]pyridine-3-carbonyl)-N-(pyrrolidin-1-ylsulfonyl)benzamide]: the IC50 in assay [1] was 1000 to 5000 nM. For the same compound, in assay [2], the IC50 is 100 to 1000 nM and the “MTHFD1/MTHFD2 IC50 ratio” value is recorded as “J (>30)”.

Take `COC[C@H]1CN(c2ccc3c4c(c(=O)oc3c2C)CN(C(=O)c2cc(OC3CCCC3)c(C(=O)NS(=O)(=O)N(C)C)c(C(F)(F)F)c2)CC4)CCN1C` [Example 117, (R)-2-(cyclopentyloxy)-N-(N,N-dimethylsulfamoyl)-4-(8-(3-(methoxymethyl)-4-methylpiperazin-1-yl)-7-methyl-5-oxo-1,3,4,5-tetrahydro-2H-chromeno[3,4-c]pyridine-3-carbonyl)-6-(trifluoromethyl)benzamide]: the IC50 in assay [1] lay in the range of 1000 to 5000 nM. For the same compound, in assay [2], the concentration for half-maximal inhibition (IC50) fell in the range of 100 to 1000 nM and the “MTHFD1/MTHFD2 IC50 ratio” value is on record as “H (>9.0 to 30)”.

For the compound `CCOc1c(C(=O)NS(=O)(=O)N2CC3CC3C2)ccc(C(=O)N2CCc3c(c(=O)oc4c(Cl)c(N5CCN(C)[C@@H](COC)C5)ccc34)C2)c1F` (stereo partly drawn) [Example 208, N-((3-azabicyclo[3.1.0]hexan-3-yl)sulfonyl)-4-(7-chloro-8-((R)-3-(methoxymethyl)-4-methylpiperazin-1-yl)-5-oxo-1,3,4,5-tetrahydro-2H-chromeno[3,4-c]pyridine-3-carbonyl)-2-ethoxy-3-fluorobenzamide], the 50% inhibitory concentration (IC50) in assay [1] fell in the range of 10 to 100 nM. For the same compound, in assay [2], the half-inhibitory concentration (IC50) was 10 to 100 nM and the “MTHFD1/MTHFD2 IC50 ratio” value is listed as “F (<3)”.

Turning to `COC[C@H]1CN(c2cc(C)c3c4c(c(=O)oc3c2C)CN(C(=O)c2cc(N(C)C)c(C(=O)NS(=O)(=O)N3CCC(C(F)(F)F)CC3)cc2F)CC4)CCN1C` [Example 296, (R)-2-(dimethylamino)-5-fluoro-4-(8-(3-(methoxymethyl)-4-methylpiperazin-1-yl)-7,10-dimethyl-5-oxo-1,3,4,5-tetrahydro-2H-chromeno[3,4-c]pyridine-3-carbonyl)-N-((4-(trifluoromethyl)piperidin-1-yl)sulfonyl)benzamide], the IC50 in assay [1] is 100 to 1000 nM; in assay [2], 10 to 100 nM.

In the case of `CCOc1c(C(=O)NS(=O)(=O)N(C2CC2)C2CC2)ccc(C(=O)N2CCc3c(c(=O)oc4c(C)c(N5CCN(C)[C@@H](COC)C5)cc(C)c34)C2)c1F` [Example 231], the IC50 in assay [1] and in assay [2] was 10 to 100 nM each time. For the same compound, the “MTHFD1/MTHFD2 IC50 ratio” value in assay [2] is “F (<3)”.

As for `CCOc1c(C(=O)NS(=O)(=O)N2CC3CC3C2)ccc(C(=O)N2CCc3c(c(=O)oc4c(C)c(N5CCN(C)[C@@H](COC)C5)cc(C)c34)C2)c1F` (some centres unmarked) [Example 229], the IC50 in assay [1] fell in the range of 10 to 100 nM. For the same compound, in assay [2], the half-maximal inhibitory concentration (IC50) is 10 to 100 nM and the “MTHFD1/MTHFD2 IC50 ratio” value is listed as “G (^ 3 to 9.0)”.

Take `Cc1c(N2CCN3CCOC[C@H]3C2)cc(C)c2c3c(c(=O)oc12)CN(C(=O)c1ccc(C(=O)NS(=O)(=O)N2CCCC2)c(OC2CCC2)c1)CC3` [Example 21, (R)-2-cyclobutoxy-4-(8-(hexahydropyrazino[2,1-c][1,4]oxazin-8(1 H)-yl)-7,10-dimethyl-5-oxo-1,3,4,5-tetrahydro-2H-chromeno[3,4-c]pyridine-3-carbonyl)-N-(pyrrolidin-1-ylsulfonyl)benzamide]: the IC50 in assay [1] fell in the range of 100 to 1000 nM. Further, in assay [2], the 50% inhibitory concentration (IC50) fell in the range of 100 to 1000 nM and the “MTHFD1/MTHFD2 IC50 ratio” value is on record as “F (<3)”.

Turning to `COC[C@H]1CN(c2cc(Cl)c3c4c(c(=O)oc3c2C)CN(C(=O)c2cc(OC)c(C(=O)NS(=O)(=O)N(C3CC3)C3CC3)cc2F)CC4)CCN1C` [Example 297, (R)-4-(10-chloro-8-(3-(methoxymethyl)-4-methylpiperazin-1-yl)-7-methyl-5-oxo-1,3,4,5-tetrahydro-2H-chromeno[3,4-c]pyridine-3-carbonyl)-N-(N,N-dicyclopropylsulfamoyl)-5-fluoro-2-methoxybenzamide], the half-inhibitory concentration (IC50) in assay [1] was in the range of 100 to 1000 nM. Also, in assay [2], the IC50 lay within 10 to 100 nM and the “MTHFD1/MTHFD2 IC50 ratio” value is “H (>9.0 to 30)”.

On to `COC[C@H]1CN(c2ccc3c4c(c(=O)oc3c2C)CN(C(=O)c2cc(N3CC5CC5C3)c(C(=O)NS(=O)(=O)C3(C)CC3)c(C(F)(F)F)c2)CC4)CCN1C` (stereo partly drawn) [Example 104, 2-(3-azabicyclo[3.1.0]hexan-3-yl)-4-(8-((R)-3-(methoxymethyl)-4-methylpiperazin-1-yl)-7-methyl-5-oxo-1,3,4,5-tetrahydro-2H-chromeno[3,4-c]pyridine-3-carbonyl)-N-((1-methylcyclopropyl)sulfonyl)-6-(trifluoromethyl)benzamide], for which the figures for the IC50 in assay [1] and in assay [2] were greater than 5000 nM and 100 to 1000 nM, respectively. Besides, the “MTHFD1/MTHFD2 IC50 ratio” value in assay [2] is listed as “H (>9.0 to 30)”.

As for `COC[C@H]1CN(c2ccc3c4c(c(=O)oc3c2C)CN(C(=O)c2cc(OC3CCC3)c(C(=O)NS(=O)(=O)N3CCCC3)c(C(F)(F)F)c2)CC4)CCN1C` [Example 133, (R)-2-cyclobutoxy-4-(8-(3-(methoxymethyl)-4-methylpiperazin-1-yl)-7-methyl-5-oxo-1,3,4,5-tetrahydro-2H-chromeno[3,4-c]pyridine-3-carbonyl)-N-(pyrrolidin-1-ylsulfonyl)-6-(trifluoromethyl)benzamide], in assay [1], the IC50 was in the range of 100 to 1000 nM. Besides, in assay [2], the IC50 lay in the range of 100 to 1000 nM and the “MTHFD1/MTHFD2 IC50 ratio” value is “G (^ 3 to 9.0)”.

As for `COC[C@H]1CN(c2cc(C)c3c4c(c(=O)oc3c2C)CN(C(=O)c2ccc(C(=O)NS(=O)(=O)N(C)C)c(N3CCCC5(CC5)C3)c2)CC4)CCN1C` [Example 120, (R)-N-(N,N-dimethylsulfamoyl)-4-(8-(3-(methoxymethyl)-4-methylpiperazin-1-yl)-7,10-dimethyl-5-oxo-1,3,4,5-tetrahydro-2H-chromeno[3,4-c]pyridine-3-carbonyl)-2-(5-azaspiro[2.5]octan-5-yl)benzamide], the IC50 in assay [1] fell in the range of 100 to 1000 nM. In assay [2], the concentration for half-maximal inhibition (IC50) was 10 to 100 nM and the “MTHFD1/MTHFD2 IC50 ratio” value is reported as “F (<3)”.

For the compound `COC[C@H]1CN(c2cc(F)c3c4c(c(=O)oc3c2C)CN(C(=O)c2cc(OC)c(C(=O)NS(=O)(=O)N3CCCC3)cc2F)CC4)CCN1C` [Example 309, (R)-5-fluoro-4-(10-fluoro-8-(3-(methoxymethyl)-4-methylpiperazin-1-yl)-7-methyl-5-oxo-1,3,4,5-tetrahydro-2H-chromeno[3,4-c]pyridine-3-carbonyl)-2-methoxy-N-(pyrrolidin-1-ylsulfonyl)benzamide], the values for the concentration for half-maximal inhibition (IC50) in assay [1] and in assay [2] were 1000 to 5000 nM and 10 to 100 nM, respectively. Also, the “MTHFD1/MTHFD2 IC50 ratio” value in assay [2] is reported as “J (>30)”.

On to `COC[C@H]1CN(c2cc(C)c3c4c(c(=O)oc3c2C)CN(C(=O)c2cc(C(=O)NS(=O)(=O)N3CCCC3)c3c(c2F)OC2(CCC2)O3)CC4)CCN1C` [Example 168, (R)-4-fluoro-5-(8-(3-(methoxymethyl)-4-methylpiperazin-1-yl)-7,10-dimethyl-5-oxo-1,3,4,5-tetrahydro-2H-chromeno[3,4-c]pyridine-3-carbonyl)-N-(pyrrolidin-1-ylsulfonyl)spiro[benzo[d][1,3]dioxole-2,1′-cyclobutane]-7-carboxamide], for which the 50% inhibitory concentration (IC50) in assay [1] was greater than 5000 nM. In addition, in assay [2], the concentration for half-maximal inhibition (IC50) is 1000 to 5000 nM and the “MTHFD1/MTHFD2 IC50 ratio” value is “F (<3)”.

On to `COC[C@H]1CN(c2cc(C)c3c4c(c(=O)oc3c2C)CN(C(=O)c2ccc(C(=O)NS(=O)(=O)N3CCCC3)c(OC3CC3)c2F)CC4)CCN1C` [Example 212, (R)-2-cyclopropoxy-3-fluoro-4-(8-(3-(methoxymethyl)-4-methylpiperazin-1-yl)-7,10-dimethyl-5-oxo-1,3,4,5-tetrahydro-2H-chromeno[3,4-c]pyridine-3-carbonyl)-N-(pyrrolidin-1-ylsulfonyl)benzamide], for which the IC50 in assay [1] is 10 to 100 nM; in assay [2], 1 to 10 nM. The “MTHFD1/MTHFD2 IC50 ratio” value in assay [2] was “F (<3)”.
